Assay results taken from patent publication US20050282830A1, “Use of dipyridamole or mopidamole for treatment and prevention of MMP-9-dependent disorders” (Boehringer Ingelheim International GmbH, priority 2003, published 2005).

Columns and labels:
[1] = tested on: matrix metalloproteinase-9 (MMP-9); assay: Inhibition of MMP-9 gene expression/synthesis in platelet-monocyte aggregates adherent to collagen type I; assay type: cell-based, Human; conditions: adhered to collagen type I for 18 hours, 9 independent experiments
Experimental: Inhibition of MMP-9 Gene Expression in Platelet-Monocyte Aggregates by the Dipyridamole Component of Aggrenox® (AGG)
Aggrenox® (AGG) is a fixed dosed combination of extended-release dipyridamole (DIP) and aspirin (ASA). AGG is recommended in the protection of secondary stroke and transient ischemic attacks. It also increases tissue perfusion in patients with stable angina or Raynaud's disease. It was determined if AGG blocked the synthesis of inflammatory genes produced by platelet-monocyte aggregates.
Human platelets and monocytes were pretreated with Dipyridamole (DIP) (5 μg/ml), ASA (625 ng/ml), or a DIP/ASA mixture (AGG); 5 μg/ml: 625 ng/ml, an 8:1 ratio of DIP/ASA). The cells were adhered to collagen type I. Synthesis of matrix metalloproteinase-9 (MMP-9) was determined. […] AGG and DIP reduced MMP-9 expression (53%, 61%, and a 17% reduction in MMP-9 synthesis compared to untreated cells for AGG, DIP, and ASA, respectively; results shown in FIG. 1). The inhibitory actions of AGG on gene expression are due to the DIP component of this |drug|.
FIG. 1: The Dipyridamole component of Aggrenox attenuates MMP-9 synthesis by monocytes (monos) adherent to platelets (pits) and collagen. […] The cells were subsequently adhered to Collagen Type 1 for 18 hours and MMP-9 expression was measured. […]

[2] = ESPS-2; compared with aspirin; cited from earlier work

SMILES	reduction in MMP-9 synthesis compared to untreated cells ([1]; human platelets and monocytes pretreated 15 minutes with 625 ng/ml) [%]	reduction in MMP-9 synthesis compared to untreated cells ([1]; human platelets and monocytes pretreated 15 minutes with 5 μg/ml) [%]	reduction of stroke risk [2]
CC(=O)Oc1ccccc1C(=O)O [ASA, acetylsalicalic acid]	17	–	–
OCCN(CCO)c1nc(N2CCCCC2)c2nc(N(CCO)CCO)nc(N3CCCCC3)c2n1 [DIP, 2,6-bis(diethanolamino)-4,8-dipiperidino-pyrimido[5,4-d]pyrimidine]	–	61	as effective as low-dose aspirin
